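Step 1: Grow cells in 96-well plates. Step 2: Expose to compound for 48 hours at 5 concentrations. Step 3: Interpolate endpoints linearly; if unreached, use highest concentration. GI50: concentration for 50% inhibition of growth.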 Activity calls are given as the source filed them. Rule as the data show it: active = GI50 up to about 1.1 µM and inactive = higher.
Legend:
Test in all cases: DTP human tumour cell line panel, 48 h
[1] = tested on: CCRF-CEM
[2] = tested on: SF-268
[3] = tested on: HCT-15
[4] = tested on: K562
[5] = tested on: MDA-MB-435
[6] = tested on: CAKI-1
[7] = tested on: 786-0
[8] = tested on: SF-295
[9] = tested on: LOX IMVI
[10] = tested on: HCC 2998
[11] = tested on: OVCAR-3
[12] = tested on: SN12C
[13] = tested on: SNB-19
[14] = tested on: MDA-MB-231
[15] = tested on: NCI/ADR-RES
[16] = tested on: DU-145
[17] = tested on: MDA-N
[18] = tested on: HT-29
[19] = tested on: HL-60
[20] = tested on: RPMI-8226

Row | SMILES | GI50 [1] | GI50 [2] | GI50 [3] | GI50 [4] | GI50 [5] | GI50 [6] | GI50 [7] | GI50 [8] | GI50 [9] | GI50 [10] | GI50 [11] | GI50 [12] | GI50 [13] | GI50 [14] | GI50 [15] | GI50 [16] | GI50 [17] | GI50 [18] | GI50 [19] | GI50 [20]
1 | CCOC(=O)NC(Nc1ccc(F)c(F)c1)(C(=O)OCC)C(F)(F)F (stereo not given) | > 100 µM (inactive) | > 100 µM (inactive) | > 100 µM | 17.8 µM (inactive) | 5.69 µM (inactive) | > 100 µM (inactive) | > 100 µM (inactive) | 74 µM (inactive) | 0.361 µM (active) | > 100 µM (inactive) | > 100 µM (inactive) | > 100 µM (inactive) | > 100 µM (inactive) | > 100 µM (inactive) | > 68.5 µM (inactive) | > 62.8 µM (inactive) | > 100 µM (inactive) | > 100 µM (inactive) | 20.4 µM (inactive) | > 100 µM (inactive)
2 | COc1cc2c(c(OC)c1OC)-c1ccc(SC)c(=O)cc1[C@@H](NC(=O)C(F)(F)F)CC2 | < 0.01 µM (active) | < 0.01 µM (active) | < 0.01 µM | < 0.01 µM (active) | < 0.01 µM (active) | < 0.0139 µM (active) | < 0.01 µM (active) | < 0.01 µM (active) | < 0.01 µM (active) | < 0.01 µM (active) | < 0.0158 µM (active) | < 0.01 µM (active) | < 0.01 µM (active) | < 0.01 µM (active) | 0.0261 µM (active) | < 0.01 µM (active) | < 0.01 µM (active) | < 0.01 µM (active) | < 0.01 µM (active) | < 0.01 µM (active)
3 | CCCC(=O)Nc1cc(/C=C/C(=O)N2C[C@H]3C[C@@]34C2=CC(=O)c2[nH]cc(C)c24)n(C)c1 | < 0.0025 µM (active) | < 0.0025 µM (active) | 0.0103 µM | < 0.0025 µM (active) | < 0.0025 µM (active) | < 0.0025 µM (active) | < 0.0025 µM (active) | < 0.0025 µM (active) | < 0.0025 µM (active) | < 0.0025 µM (active) | < 0.0025 µM (active) | < 0.0025 µM (active) | 0.00593 µM (active) | < 0.0025 µM (active) | 0.00982 µM (active) | < 0.0025 µM (active) | < 0.0025 µM (active) | < 0.0025 µM (active) | < 0.0025 µM (active) | 0.0161 µM (active)
4 | NC(=O)NNCc1c(-c2ccccc2)no[n+]1[O-] | > 100 µM (inactive) | > 100 µM (inactive) | > 100 µM | > 100 µM (inactive) | > 100 µM (inactive) | > 100 µM (inactive) | > 100 µM (inactive) | > 100 µM (inactive) | > 100 µM (inactive) | > 100 µM (inactive) | > 100 µM (inactive) | > 100 µM (inactive) | > 100 µM (inactive) | > 100 µM (inactive) | > 100 µM (inactive) | > 100 µM (inactive) | > 100 µM (inactive) | > 100 µM (inactive) | > 100 µM (inactive) | > 100 µM (inactive)
5 | O=S(=O)(O)c1cc(O)c(/N=N\C2S(=O)(=O)OCCOS2(=O)=O)c2ccccc12 | 28.8 µM (inactive) | > 100 µM (inactive) | > 100 µM | > 100 µM (inactive) | > 100 µM (inactive) | > 100 µM (inactive) | 61.9 µM (inactive) | 51.4 µM (inactive) | 61.9 µM (inactive) | > 100 µM (inactive) | > 100 µM (inactive) | > 100 µM (inactive) | 56.5 µM (inactive) | > 100 µM (inactive) | > 100 µM (inactive) | > 100 µM (inactive) | > 100 µM (inactive) | > 100 µM (inactive) | 22.2 µM (inactive) | > 100 µM (inactive)
6 | CN(C)c1ccc(/C=C2\N=C(c3ccccc3)N(c3nc4c(Cl)cc(Cl)cc4s3)C2=O)cc1 | 0.731 µM (active) | 48.6 µM (inactive) | 43.6 µM | 31.6 µM (inactive) | 21.2 µM (inactive) | 41.8 µM (inactive) | 77.1 µM (inactive) | 93.8 µM (inactive) | 38.3 µM (inactive) | 45.2 µM (inactive) | 64.4 µM (inactive) | 44 µM (inactive) | 82.4 µM (inactive) | 29.7 µM (inactive) | 43.7 µM (inactive) | > 100 µM (inactive) | 22.9 µM (inactive) | 38.4 µM (inactive) | 24.9 µM (inactive) | 14.9 µM (inactive)
7 | CSc1ncc2c(C#N)c3sc4ccccc4n3c(=O)c2n1 | > 100 µM (inactive) | 16.1 µM (inactive) | 80.4 µM | > 100 µM (inactive) | > 100 µM (inactive) | 73.8 µM (inactive) | 41.8 µM (inactive) | > 100 µM (inactive) | > 100 µM (inactive) | > 100 µM (inactive) | > 100 µM (inactive) | > 100 µM (inactive) | 37.8 µM (inactive) | 41.1 µM (inactive) | 38.8 µM (inactive) | > 100 µM (inactive) | > 100 µM (inactive) | > 100 µM (inactive) | > 100 µM (inactive) | > 100 µM (inactive)
8 | COc1cc2c(cc1C)NC(=O)/C2=C/c1c(Cl)n(-c2ccccc2)c2ccccc12 | 4.42 µM (inactive) | 20.6 µM (inactive) | 11.8 µM | 6.46 µM (inactive) | 15.1 µM (inactive) | 21 µM (inactive) | 15.3 µM (inactive) | 11.3 µM (inactive) | 7.33 µM (inactive) | 8.24 µM (inactive) | 7.91 µM (inactive) | 11.2 µM (inactive) | 45.7 µM (inactive) | 8.69 µM (inactive) | 16.8 µM (inactive) | 31.8 µM (inactive) | 15.1 µM (inactive) | 5.25 µM (inactive) | 3.38 µM (inactive) | 7.28 µM (inactive)
9 | COC(=O)C(Cc1ccccc1)NC(=O)CCCNC(=O)OCc1ccccc1 (stereo not given) | 41 µM (inactive) | > 100 µM (inactive) | > 100 µM | > 100 µM (inactive) | 86.1 µM (inactive) | > 100 µM (inactive) | > 100 µM (inactive) | > 100 µM (inactive) | > 100 µM (inactive) | > 100 µM (inactive) | > 100 µM (inactive) | > 100 µM (inactive) | > 100 µM (inactive) | > 100 µM (inactive) | > 100 µM (inactive) | > 100 µM (inactive) | 63.7 µM (inactive) | > 100 µM (inactive) | 33.7 µM (inactive) | 87.3 µM (inactive)
10 | Nc1ccc(Oc2ccc(C34CC5CC(C3)CC(c3ccc(Oc6ccc(N)cc6)cc3)(C5)C4)cc2)cc1 | > 22 µM (inactive) | 9.66 µM (inactive) | 10.8 µM | 15.8 µM (inactive) | 7.53 µM (inactive) | 13.5 µM (inactive) | 10.2 µM (inactive) | 10.3 µM (inactive) | 6.25 µM (inactive) | 4.9 µM (inactive) | 7.66 µM (inactive) | 12.5 µM (inactive) | 12 µM (inactive) | 11.1 µM (inactive) | 13.9 µM (inactive) | 7.43 µM (inactive) | 8.71 µM (inactive) | 8.11 µM (inactive) | > 41.3 µM (inactive) | 4.14 µM (inactive)
11 | CC(=O)OCc1cn(S(=O)(=O)c2ccc(C)cc2)cn1 | 26.7 µM (inactive) | 37.2 µM (inactive) | 18.5 µM | > 100 µM (inactive) | 19.6 µM (inactive) | > 100 µM (inactive) | > 100 µM (inactive) | > 100 µM (inactive) | 47.5 µM (inactive) | > 100 µM (inactive) | 24.2 µM (inactive) | > 100 µM (inactive) | > 100 µM (inactive) | > 100 µM (inactive) | > 100 µM (inactive) | > 100 µM (inactive) | 12.5 µM (inactive) | 20.7 µM (inactive) | > 100 µM (inactive) | > 100 µM (inactive)
12 | O=C(NCCCCCCCN1CCCCCCC1)C(C1CCCCC1)C1CCCCC1 | 6.97 µM (inactive) | 15.8 µM (inactive) | 4.07 µM | 2.77 µM (inactive) | 7.67 µM (inactive) | 7.14 µM (inactive) | 4.74 µM (inactive) | 11.4 µM (inactive) | 12 µM (inactive) | 2.76 µM (inactive) | 6.07 µM (inactive) | 13.1 µM (inactive) | 14.3 µM (inactive) | 8.51 µM (inactive) | 9.98 µM (inactive) | 13.8 µM (inactive) | 7.93 µM (inactive) | 2.82 µM (inactive) | 5.14 µM (inactive) | 2.56 µM (inactive)
13 | COc1ccc(-c2cc(=O)c3c(OC)c(OC)c(OC)c(OC)c3o2)c(OC)c1 | 33.8 µM (inactive) | 51.5 µM (inactive) | 25.6 µM | 48.4 µM (inactive) | 24.6 µM (inactive) | 29.8 µM (inactive) | 32.3 µM (inactive) | 18.4 µM (inactive) | 17.2 µM (inactive) | 18.8 µM (inactive) | 13.4 µM (inactive) | 20.6 µM (inactive) | 32.8 µM (inactive) | 25.1 µM (inactive) | 16.8 µM (inactive) | 30.4 µM (inactive) | 29.1 µM (inactive) | 24.2 µM (inactive) | 29.7 µM (inactive) | 33 µM (inactive)
14 | CN(C)CCNc1ncnc2[nH]c(-c3ccc4ccccc4c3)nc12 | > 100 µM (inactive) | > 100 µM (inactive) | > 100 µM | > 100 µM (inactive) | > 100 µM (inactive) | > 100 µM (inactive) | > 100 µM (inactive) | > 100 µM (inactive) | > 100 µM (inactive) | > 100 µM (inactive) | > 100 µM (inactive) | > 100 µM (inactive) | > 100 µM (inactive) | > 100 µM (inactive) | > 100 µM (inactive) | > 100 µM (inactive) | > 100 µM (inactive) | > 100 µM (inactive) | > 100 µM (inactive) | > 100 µM (inactive)

From ChEMBL document CHEMBL1201862, “PubChem BioAssay data set” (2004)
